Measurements from patent US10882843B2, “5-aminopyrazole carboxamide derivative as BTK inhibitor and preparation method and pharmaceutical composition thereof” (SUZHOU SINOVENT PHARMACEUTICALS CO., LTD., priority 2016, dated 2021).
pIC50: −log10 of the molar value.

Legend:
[1] = target: Recombinant Btk (Homo sapiens, UniProt Q06187); assay: Kinase activity (BTK) inhibition assay, TR-FRET; assay type: biochemical; details: read-out: BTK kinase inhibitory activity grade (A/B/C)
Procedure: Kinase Activity (BTK) Inhibition Assay
The inhibitory effects of the compounds disclosed herein on BTK kinase activity were tested in an assay based on a time resolved fluorescence resonance energy transfer (TR-FRET) method. Recombinant Btk was pre-incubated with the compound disclosed herein in an assay buffer containing 50 mM. Tris pH 7.4, 10 mM MgCl2, 2 mM MnCl2, 0.1 mM EDTA, 1 mM DTT, 20 nM SEB, 0.1% BSA, 0.005% tween-20 at room temperature for 1 hour. The reaction was initiated by the addition of ATP (at the ATP Km concentration) and the peptide substrate (Biotin-[…]-NH2). After incubation for 1 hour at room temperature, an equal volume of stop solution containing 50 mM HEPES pH 7.0, 800 mM KF, 20 mM EDTA, 0.1% BSA, p-Tyr66 antibody linked with Eu cryptate and streptavidin-labeled XL665 was added to stop the reaction. The plate was incubated for an additional hour at room temperature and then the TR-FRET signal was read on a BMG PHERAstar FS instrument (ex337 nm, em 620 nm/665 nm). Based on the ratio of the signal of fluorescence at […] to 665 nm, the enzyme activity was calculated with an increased compound concentration. IC50 of each compound was obtained by fitting the data to the four-parameter equation of Graphpad Prism software.

[2] = test system: diffuse large B-cell lymphoma cell line TMD-8; assay: Pharmacodynamic assay, TMD-8 xenograft in NOD.SCID mice; assay type: in vivo; details: p.o. daily for 21 days
Procedure: Severe immunodeficiency NOD.SCID mice were purchased from Beijing Vital River Laboratory Animal Technology Co., Ltd., and were housed in SPF grade animal room. After TMD-8 cells were cultured to the sufficient amount, the cells were collected by centrifugation and washed twice with PBS. Finally, the cells were resuspended in serum-free RPMI 1640 medium plus Matrigel (1:1 v/v). 0.2 ml of cell suspension was injected subcutaneously on the right flank of each mouse using 1 ml syringe and 25 G syringe needle. The tumor size was measured with a caliper after about one week post injection. The tumor volume was calculated according to the following formula: tumor volume=(length×width^2)/2. When the tumor volume reached about 100-200 mm^3, the mice were grouped and p.o. administered daily for 21 days.

[3] = target: LYN (Homo sapiens, UniProt P07948); assay: In vitro kinase selectivity assay, LYN (Z'-Lyte); assay type: biochemical; details: read-out: LYN kinase inhibitory activity grade
Chain of LYN (P07948 whole entry, species assumed): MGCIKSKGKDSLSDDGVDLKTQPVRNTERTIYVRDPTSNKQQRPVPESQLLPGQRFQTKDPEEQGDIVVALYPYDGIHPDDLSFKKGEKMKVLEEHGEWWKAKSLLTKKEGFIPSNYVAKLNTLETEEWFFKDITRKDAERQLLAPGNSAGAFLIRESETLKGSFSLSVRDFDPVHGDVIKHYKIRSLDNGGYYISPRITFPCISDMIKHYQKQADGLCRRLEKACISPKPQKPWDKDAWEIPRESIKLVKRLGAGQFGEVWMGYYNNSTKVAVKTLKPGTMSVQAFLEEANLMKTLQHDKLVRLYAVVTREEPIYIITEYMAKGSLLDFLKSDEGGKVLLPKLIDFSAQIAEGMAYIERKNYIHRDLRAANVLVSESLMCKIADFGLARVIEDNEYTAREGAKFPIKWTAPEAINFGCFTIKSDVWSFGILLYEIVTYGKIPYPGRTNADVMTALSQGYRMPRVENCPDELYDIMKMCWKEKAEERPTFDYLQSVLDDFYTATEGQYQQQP
Procedure: (§1) The assay platform for EGFR and ITK kinase activities was established using time-resolved fluorescence resonance energy transfer-based method; the assay platform for LCK, SRC and LYN kinase activities was established using Z′-Lyte method; and the assay platform for TEC and JAK3 kinase activities was established using Lance Ultra method. The inhibitory effects of the compounds disclosed herein on different kinase activities were tested separately for each compound at 11 concentrations. The IC50 value of each compound was calculated using Graphpad Prism software.

[4] = target: T1, ITK (Homo sapiens, UniProt Q08881); assay: In vitro kinase selectivity assay, ITK (TR-FRET); assay type: biochemical; details: read-out: ITK kinase inhibitory activity grade
T1 sequence (Q08881 1-620): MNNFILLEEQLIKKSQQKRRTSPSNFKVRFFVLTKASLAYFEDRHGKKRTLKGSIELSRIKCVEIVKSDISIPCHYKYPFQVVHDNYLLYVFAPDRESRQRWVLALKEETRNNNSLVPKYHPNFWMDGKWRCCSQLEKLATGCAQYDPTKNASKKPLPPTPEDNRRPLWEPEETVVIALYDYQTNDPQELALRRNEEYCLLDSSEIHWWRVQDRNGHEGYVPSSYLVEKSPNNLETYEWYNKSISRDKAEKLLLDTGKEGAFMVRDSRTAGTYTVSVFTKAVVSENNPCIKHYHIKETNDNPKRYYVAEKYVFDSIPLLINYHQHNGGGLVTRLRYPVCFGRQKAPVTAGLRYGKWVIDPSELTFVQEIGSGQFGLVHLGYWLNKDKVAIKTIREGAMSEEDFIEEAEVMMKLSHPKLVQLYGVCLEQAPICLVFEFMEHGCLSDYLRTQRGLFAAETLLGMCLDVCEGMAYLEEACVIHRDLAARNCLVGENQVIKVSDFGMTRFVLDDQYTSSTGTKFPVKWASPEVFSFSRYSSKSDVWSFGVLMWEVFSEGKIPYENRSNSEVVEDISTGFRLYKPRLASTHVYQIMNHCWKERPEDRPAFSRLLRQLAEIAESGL
Procedure: as §1

[5] = target: SRC (Homo sapiens, UniProt P12931); assay: In vitro kinase selectivity assay, SRC (Z'-Lyte); assay type: biochemical; details: read-out: SRC kinase inhibitory activity grade
Chain of SRC (P12931 whole entry, species assumed): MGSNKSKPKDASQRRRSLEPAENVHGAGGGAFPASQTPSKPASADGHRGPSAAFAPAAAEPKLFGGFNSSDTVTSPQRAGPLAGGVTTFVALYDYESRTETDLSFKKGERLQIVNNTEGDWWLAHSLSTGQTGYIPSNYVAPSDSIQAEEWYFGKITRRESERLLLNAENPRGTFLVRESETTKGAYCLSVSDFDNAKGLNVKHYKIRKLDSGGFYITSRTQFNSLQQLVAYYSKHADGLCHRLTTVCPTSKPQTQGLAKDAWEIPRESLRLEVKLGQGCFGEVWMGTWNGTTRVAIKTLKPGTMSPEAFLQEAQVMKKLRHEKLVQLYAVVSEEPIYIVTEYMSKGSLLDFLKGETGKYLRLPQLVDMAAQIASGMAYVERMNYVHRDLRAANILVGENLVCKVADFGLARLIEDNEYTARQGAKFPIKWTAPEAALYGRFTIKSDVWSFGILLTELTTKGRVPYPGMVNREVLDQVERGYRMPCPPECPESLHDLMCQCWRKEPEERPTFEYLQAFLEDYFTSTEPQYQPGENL
Procedure: as §1

[6] = target: T2, TEC (Homo sapiens, UniProt P42680); assay: In vitro kinase selectivity assay, TEC (Lance Ultra); assay type: biochemical; details: read-out: TEC kinase inhibitory activity grade
T2 sequence (P42680 1-631): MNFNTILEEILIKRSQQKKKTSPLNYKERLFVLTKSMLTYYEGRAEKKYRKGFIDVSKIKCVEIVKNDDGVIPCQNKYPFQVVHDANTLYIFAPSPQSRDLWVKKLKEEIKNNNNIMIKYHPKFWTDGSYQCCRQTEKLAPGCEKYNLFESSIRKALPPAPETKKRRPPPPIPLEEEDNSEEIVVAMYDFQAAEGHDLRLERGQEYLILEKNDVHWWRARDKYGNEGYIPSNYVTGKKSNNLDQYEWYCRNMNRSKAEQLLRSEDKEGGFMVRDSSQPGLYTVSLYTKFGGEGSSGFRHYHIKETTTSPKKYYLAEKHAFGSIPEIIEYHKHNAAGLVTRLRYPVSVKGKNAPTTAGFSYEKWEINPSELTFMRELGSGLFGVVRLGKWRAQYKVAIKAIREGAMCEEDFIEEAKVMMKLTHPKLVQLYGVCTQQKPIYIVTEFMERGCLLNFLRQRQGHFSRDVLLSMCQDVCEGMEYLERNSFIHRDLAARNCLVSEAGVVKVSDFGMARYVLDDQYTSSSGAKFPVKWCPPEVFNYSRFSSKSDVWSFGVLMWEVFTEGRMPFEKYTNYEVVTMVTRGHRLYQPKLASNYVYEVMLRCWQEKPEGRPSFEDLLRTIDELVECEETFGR
Procedure: as §1

[7] = target: EGFR (Homo sapiens, UniProt P00533); assay: In vitro kinase selectivity assay, EGFR (TR-FRET); assay type: biochemical; details: read-out: EGFR kinase inhibitory activity grade
Chain of EGFR (P00533 25-1210): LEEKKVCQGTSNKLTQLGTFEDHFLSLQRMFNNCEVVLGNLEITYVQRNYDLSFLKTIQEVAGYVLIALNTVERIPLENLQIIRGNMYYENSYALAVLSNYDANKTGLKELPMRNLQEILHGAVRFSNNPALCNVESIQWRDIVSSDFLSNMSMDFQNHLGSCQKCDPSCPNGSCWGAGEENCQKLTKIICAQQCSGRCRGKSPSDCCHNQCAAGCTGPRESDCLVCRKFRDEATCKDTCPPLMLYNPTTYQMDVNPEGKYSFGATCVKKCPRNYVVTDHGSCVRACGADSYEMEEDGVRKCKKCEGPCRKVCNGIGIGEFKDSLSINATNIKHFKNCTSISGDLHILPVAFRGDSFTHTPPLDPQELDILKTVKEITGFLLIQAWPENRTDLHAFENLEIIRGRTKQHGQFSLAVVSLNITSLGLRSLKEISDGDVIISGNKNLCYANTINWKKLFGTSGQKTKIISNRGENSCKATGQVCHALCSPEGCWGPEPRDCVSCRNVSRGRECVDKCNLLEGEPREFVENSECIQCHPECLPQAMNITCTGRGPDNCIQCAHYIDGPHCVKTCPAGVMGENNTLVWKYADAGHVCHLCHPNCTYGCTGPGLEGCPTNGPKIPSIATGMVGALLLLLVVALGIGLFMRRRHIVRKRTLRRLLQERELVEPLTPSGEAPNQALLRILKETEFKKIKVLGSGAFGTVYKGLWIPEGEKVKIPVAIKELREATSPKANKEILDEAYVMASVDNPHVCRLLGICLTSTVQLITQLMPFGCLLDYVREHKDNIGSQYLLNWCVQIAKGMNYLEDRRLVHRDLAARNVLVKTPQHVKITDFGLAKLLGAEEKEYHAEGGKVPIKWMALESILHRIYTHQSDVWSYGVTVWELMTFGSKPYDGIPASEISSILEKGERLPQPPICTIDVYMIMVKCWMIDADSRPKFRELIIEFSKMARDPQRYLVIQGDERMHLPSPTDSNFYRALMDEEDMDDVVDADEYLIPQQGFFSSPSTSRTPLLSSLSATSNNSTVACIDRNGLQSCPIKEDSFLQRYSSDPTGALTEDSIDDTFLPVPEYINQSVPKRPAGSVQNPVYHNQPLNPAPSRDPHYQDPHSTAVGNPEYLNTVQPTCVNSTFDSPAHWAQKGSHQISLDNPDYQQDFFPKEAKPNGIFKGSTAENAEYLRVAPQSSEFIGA
Procedure: as §1

[8] = target: LCK (Homo sapiens, UniProt P06239); assay: In vitro kinase selectivity assay, LCK (Z'-Lyte); assay type: biochemical; details: read-out: LCK kinase inhibitory activity grade
Chain of LCK (P06239 whole entry, species assumed): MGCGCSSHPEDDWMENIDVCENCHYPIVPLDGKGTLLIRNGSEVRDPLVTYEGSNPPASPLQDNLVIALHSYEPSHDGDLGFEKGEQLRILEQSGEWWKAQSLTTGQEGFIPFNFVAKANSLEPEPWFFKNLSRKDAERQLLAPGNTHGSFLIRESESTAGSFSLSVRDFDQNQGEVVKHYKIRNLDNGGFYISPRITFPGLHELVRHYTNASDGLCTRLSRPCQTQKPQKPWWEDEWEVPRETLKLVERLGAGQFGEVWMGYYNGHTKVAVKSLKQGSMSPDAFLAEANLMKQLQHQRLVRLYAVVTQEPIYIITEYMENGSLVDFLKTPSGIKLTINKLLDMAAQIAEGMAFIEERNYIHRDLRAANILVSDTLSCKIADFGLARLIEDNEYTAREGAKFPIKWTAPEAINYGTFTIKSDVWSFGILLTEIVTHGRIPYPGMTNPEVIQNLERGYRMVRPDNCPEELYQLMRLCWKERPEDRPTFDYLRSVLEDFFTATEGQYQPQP
Procedure: as §1

Chain of Recombinant Btk (Q06187 whole entry): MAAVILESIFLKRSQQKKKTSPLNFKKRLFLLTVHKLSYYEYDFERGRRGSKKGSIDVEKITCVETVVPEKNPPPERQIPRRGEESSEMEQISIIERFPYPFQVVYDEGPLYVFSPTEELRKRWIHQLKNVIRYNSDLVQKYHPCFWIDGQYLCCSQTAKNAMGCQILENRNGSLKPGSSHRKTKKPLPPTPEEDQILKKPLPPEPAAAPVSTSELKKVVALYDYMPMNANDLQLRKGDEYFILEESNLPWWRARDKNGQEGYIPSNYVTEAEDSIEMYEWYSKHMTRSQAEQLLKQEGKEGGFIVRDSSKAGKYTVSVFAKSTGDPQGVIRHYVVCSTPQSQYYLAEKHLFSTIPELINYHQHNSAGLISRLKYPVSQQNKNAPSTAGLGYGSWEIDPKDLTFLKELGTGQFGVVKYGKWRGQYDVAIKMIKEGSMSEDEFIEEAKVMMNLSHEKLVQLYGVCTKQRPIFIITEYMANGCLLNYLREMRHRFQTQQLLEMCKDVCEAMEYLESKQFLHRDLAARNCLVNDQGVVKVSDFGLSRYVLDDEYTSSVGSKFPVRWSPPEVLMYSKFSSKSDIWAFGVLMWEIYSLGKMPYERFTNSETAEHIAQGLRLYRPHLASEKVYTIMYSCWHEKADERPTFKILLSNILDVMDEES

| SMILES | pIC50 [1] | further results |
| --- | --- | --- |
| C[C@@H]1CC[C@H](n2nc(-c3ccc(Oc4ccc(Cl)cn4)cc3)c(C(N)=O)c2N)CN1C#N [WS-402, 5-amino-3-(4-((5-chloropyridin-2-yl)oxy)phenyl)-1-((3S,6R)-1-cyano-6-methylpiperidin-3-yl)-1H-pyrazole-4-carboxamide] | 6.00 to 7.00 |  |
| C[C@H]1CC[C@H](n2nc(-c3ccc(Oc4ccc(Cl)cn4)cc3)c(C(N)=O)c2N)CN1C#N [WS-404, 5-amino-3-(4-((5-chloropyridin-2-yl)oxy)phenyl)-1-((3S,6S)-1-cyano-6-methylpiperidin-3-yl)-1H-pyrazole-4-carboxamide] | 6.00 to 7.00 |  |
| NC(=O)c1c(-c2ccc(Oc3ccc(Cl)cn3)cc2)nn(C2CCC3(CC3)N(C(=O)/C=C/CO)C2)c1N (stereo not shown) [WS-406, (E)-5-amino-3-(4-((5-chloropyridin-2-yl)oxy)phenyl)-1-(4-(4-hydroxybut-2-enoyl)-4-azaspiro[2.5]oct-6-yl)-1H-pyrazole-4-carboxamide] | > 7.00 |  |
| NC(=O)c1c(-c2ccc(Oc3ccc(F)cc3F)cc2)nn(C2CCC3(CC3)N(C(=O)/C=C/CO)C2)c1N (stereo not shown) [WS-409, (E)-5-amino-3-(4-(2,4-difluorophenoxy)phenyl)-1-(4-(4-hydroxybut-2-enoyl)-4-azaspiro[2.5]oct-6-yl)-1H-pyrazole-4-carboxamide] | > 7.00 |  |
| C=CC(=O)N1CC(n2nc(-c3ccc(Oc4ccc(F)cc4F)cc3)c(C(N)=O)c2N)CCC12CC2 (stereo not shown) [WS-410, 1-(4-acryloyl-4-azaspiro[2.5]oct-6-yl)-5-amino-3-(4-(2,4-difluorophenoxy)phenyl)-1H-pyrazole-4-carboxamide] | > 7.00 |  |
| N#CN1C[C@H](n2nc(-c3ccc(Oc4ccc(F)cc4F)cc3)c(C(N)=O)c2N)CCC12CC2 [WS-411, (R)-5-amino-1-(4-cyano-4-azaspiro[2.5]oct-6-yl)-3-(4-(2,4-difluorophenoxy)phenyl)-1H-pyrazole-4-carboxamide] | > 7.00 | growth of TMD-8 tumor in vivo [2]: significantly inhibited the growth; pIC50 [3]: 6.00 to 7.00; pIC50 [4]: < 6.00; pIC50 [5]: < 6.00; pIC50 [6]: > 7.00; pIC50 [7]: < 6.00; pIC50 [8]: 6.00 to 7.00 |
| N#CN1C[C@@H](n2nc(-c3ccc(Oc4ccc(F)cc4F)cc3)c(C(N)=O)c2N)CCC12CC2 [WS-412, (S)-5-amino-1-(4-cyano-4-azaspiro[2.5]oct-6-yl)-3-(4-(2,4-difluorophenoxy)phenyl)-1H-pyrazole-4-carboxamide] | < 6.00 |  |
| N#CN1C[C@H](n2nc(-c3ccc(Oc4ccc(Cl)cn4)cc3)c(C(N)=O)c2N)CCC12CC2 [WS-413, (R)-5-amino-3-(4-((5-chloropyridin-2-yl)oxy)phenyl)-1-(4-cyano-4-azaspiro[2.5]oct-6-yl)-1H-pyrazole-4-carboxamide] | > 7.00 | growth of TMD-8 tumor in vivo [2]: significantly inhibited the growth; pIC50 [3]: < 6.00; pIC50 [4]: < 6.00; pIC50 [5]: < 6.00; pIC50 [6]: > 7.00; pIC50 [7]: 6.00 to 7.00; pIC50 [8]: < 6.00 |
| N#CN1C[C@@H](n2nc(-c3ccc(Oc4ccc(Cl)cn4)cc3)c(C(N)=O)c2N)CCC12CC2 [WS-414, (S)-5-amino-3-(4-((5-chloropyridin-2-yl)oxy)phenyl)-1-(4-cyano-4-azaspiro[2.5]oct-6-yl)-1H-pyrazole-4-carboxamide] | 6.00 to 7.00 |  |
| CC#CC(=O)N1C[C@H](n2nc(-c3ccc(Oc4ccc(F)cc4F)cc3)c(C(N)=O)c2N)CCC12CC2 [WS-422, (R)-5-amino-1-(4-(2-butynoyl)-4-azaspiro[2.5]oct-6-yl)-3-(4-(2,4-difluorophenoxy)phenyl)-1H-pyrazole-4-carboxamide] |  | growth of TMD-8 tumor in vivo [2]: significantly inhibited the growth |

Now from value to molecule, other results behind:

| pIC50 [1] | SMILES | further results |
| --- | --- | --- |
| > 7.00 | C[C@H]1CC[C@@H](n2nc(-c3ccc(Oc4ccc(Cl)cn4)cc3)c(C(N)=O)c2N)CN1C#N [WS-401, 5-amino-3-(4-((5-chloropyridin-2-yl)oxy)phenyl)-1-((3R,6S)-1-cyano-6-methylpiperidin-3-yl)-1H-pyrazole-4-carboxamide] |  |
| 6.00 to 7.00 | C[C@@H]1CC[C@@H](n2nc(-c3ccc(Oc4ccc(Cl)cn4)cc3)c(C(N)=O)c2N)CN1C#N [WS-403, 5-amino-3-(4-((5-chloropyridin-2-yl)oxy)phenyl)-1-((3R,6R)-1-cyano-6-methylpiperidin-3-yl)-1H-pyrazole-4-carboxamide] |  |
| > 7.00 | N#CN1CC(n2nc(-c3ccc(Oc4ccc(Cl)cn4)cc3)c(C(N)=O)c2N)CCC12CC2 (stereo not shown) [WS-405, 5-amino-3-(4-((5-chloropyridin-2-yl)oxy)phenyl)-1-(4-cyano-4-azaspiro[2.5]oct-6-yl)-1H-pyrazole-4-carboxamide] |  |
| > 7.00 | C=CC(=O)N1CC(n2nc(-c3ccc(Oc4ccc(Cl)cn4)cc3)c(C(N)=O)c2N)CCC12CC2 (stereo not shown) [WS-407, 1-(4-acryloyl-4-azaspiro[2.5]oct-6-yl)-5-amino-3-(4-((5-chloropyridin-2-yl)oxy)phenyl)-1H-pyrazole-4-carboxamide] |  |
| > 7.00 | N#CN1CC(n2nc(-c3ccc(Oc4ccc(F)cc4F)cc3)c(C(N)=O)c2N)CCC12CC2 (stereo not shown) [WS-408, 5-amino-1-(4-cyano-4-azaspiro[2.5]oct-6-yl)-3-(4-(2,4-difluorophenoxy)phenyl)-1H-pyrazole-4-carboxamide] |  |
| 6.00 to 7.00 | CC#CC(=O)N1C[C@@H](n2nc(-c3ccc(Oc4ccc(Cl)cn4)cc3)c(C(N)=O)c2N)CCC12CC2 [WS-417] |  |
| > 7.00 | CC#CC(=O)N1C[C@H](n2nc(-c3ccc(Oc4ccc(F)cc4F)cc3)c(C(N)=O)c2N)CCC12CC2 [WS-421, (R)-5-amino-1-(4-(2-butynoyl)-4-azaspiro[2.5]oct-6-yl)-3-(4-(2,4-difluorophenoxy)phenyl)-1H-pyrazole-4-carboxamide] |  |
